Each structure is given as a SMILES string.

The target of data set [1] is T1, TRPV1 receptor (Rattus norvegicus, UniProt O35433).
T1 construct: The neurons of the DRG naturally express the TRPV1 receptor; endogenous in cells; host or cells: primary culture of newborn rat dorsal root ganglion (DRG) neurons
Description: Inhibition of the current induced with capsaicin on rat DRGs (whole-cell patch-clamp). In kind it is cell-based. To be noted: DRG neuron; compound at 10 nM; capsaicin 1 μM; newborn rat DRG neurons. The procedure: Test of Inhibition of the Current Induced with Capsaicin on Rat DRGs
Primary Culture of Rat Dorsal Root Ganglion (DRG) Cells:
The neurons of the DRG naturally express the TRPV1 receptor.
The primary cultures of newborn rat DRGs are prepared using 1-day-old rats. Briefly, after dissection, the ganglions are trypsinized and the cells dissociated by mechanical trituration. The cells are resuspended in an Eagle basal culture medium containing 10% fetal calf serum, 25 mM KCl, 2 mM glutamine, 100 μg/ml gentamicin and 50 ng/ml of NGF, and then deposited on glass slides coated with laminin (0.25×10^6 cells per slide), which are then placed in Corning 12-well dishes. The cells are incubated at 37° C. in a humidified atmosphere containing 5% CO2 and 95% air. […]
The measuring chambers (volume 800 μl) containing the cell preparation are placed on the platform of an inverted microscope (Olympus IMT2) equipped with Hoffman optics (Modulation Contrast, New York) and observed at a magnification of 400×. […] The overall currents (membrane potential set at −60 mV) are recorded with an Axopatch 1D amplifier (Axon Instruments, Foster city, Calif.), connected to a PC running the Pclamp8 software (Axon Instrument). The current plots are recorded on paper and simultaneously digitized (sampling frequency 15 to 25 Hz) and acquired on the hard drive of the PC. […]
In general terms: Patch clamp records ionic current or voltage across a cell membrane.

T1 sequence (O35433 whole entry): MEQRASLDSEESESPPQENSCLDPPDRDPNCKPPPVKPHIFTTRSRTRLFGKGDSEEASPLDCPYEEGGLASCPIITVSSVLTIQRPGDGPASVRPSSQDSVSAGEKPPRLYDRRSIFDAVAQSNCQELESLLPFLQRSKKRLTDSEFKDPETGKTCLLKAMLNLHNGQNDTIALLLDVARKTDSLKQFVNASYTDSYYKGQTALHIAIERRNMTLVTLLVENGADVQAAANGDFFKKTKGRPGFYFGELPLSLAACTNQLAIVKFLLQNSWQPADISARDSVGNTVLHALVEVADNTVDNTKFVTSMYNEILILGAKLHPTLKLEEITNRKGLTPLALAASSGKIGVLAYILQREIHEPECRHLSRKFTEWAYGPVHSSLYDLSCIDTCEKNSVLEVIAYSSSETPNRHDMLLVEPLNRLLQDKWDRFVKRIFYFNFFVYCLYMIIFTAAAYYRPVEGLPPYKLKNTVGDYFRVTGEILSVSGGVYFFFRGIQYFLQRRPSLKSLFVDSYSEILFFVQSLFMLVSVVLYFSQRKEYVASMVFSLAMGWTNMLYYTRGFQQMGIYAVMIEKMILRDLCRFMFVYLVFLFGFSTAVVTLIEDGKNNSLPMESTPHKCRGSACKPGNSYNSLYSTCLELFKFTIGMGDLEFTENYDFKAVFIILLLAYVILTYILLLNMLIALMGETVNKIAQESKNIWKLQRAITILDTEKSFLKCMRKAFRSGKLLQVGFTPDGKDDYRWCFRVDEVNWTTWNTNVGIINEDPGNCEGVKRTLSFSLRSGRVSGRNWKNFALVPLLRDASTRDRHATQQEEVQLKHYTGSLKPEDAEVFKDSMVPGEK

In the case of `Cc1nc2cc(NC(=O)c3cc4cccnc4n3-c3ccncc3)ccc2s1`, the melting point (usually the temperature of the solid-liquid transition) lay in the range of 236 to 238 °C. As to `Cc1nc2cc(NC(=O)c3cc4cc(F)cnc4n3Cc3ccncc3)ccc2s1` [Compound 1, N-(2-methylbenzothiazol-5-yl)-5-fluoro-1-[(4-pyridyl)methyl]-1H-pyrrolo[2,3-b]pyridine-2-carboxamide], in data set [1], the inhibition (commonly the share of the control response that was lost under treatment) at 0.01 µM amounted to 50%.

The record behind these values is patent publication US8044066B2, “Derivatives of pyrrolopyridine-2-carboxamides, preparation thereof and therapeutic application thereof” (Sanofi-Aventis, priority 2007, dated 2011).
